# Source: PubChem BioAssay (NCI)
#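 Five concentrations, 48 hours, 96-well plates. TGI denotes the concentration required for complete inhibition of growth.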 Where a SMILES comes first, the peptide text is derived from it. The star is where a group is joined. Pentanoyl = CCCCC(=O)*; Boc = CC(C)(C)OC(=O)*
# How the values were obtained:
# Experiment in all cases: NCI anticancer screen, dose series, 48 h
# OVCAR-8 ovarian = system: OVCAR-8 ovarian
# SK-MEL-28 melanoma = system: SK-MEL-28 melanoma
# CCRF-CEM leukemia = system: CCRF-CEM leukemia
# DU-145 prostate = system: DU-145 prostate
# OVCAR-4 ovarian = system: OVCAR-4 ovarian
# HOP-92 NSCLC = system: HOP-92 NSCLC
# SW-620 colon = system: SW-620 colon
# SK-OV-3 ovarian = system: SK-OV-3 ovarian
# NCI-H23 lung = system: NCI-H23 lung
# IGROV1 ovarian = system: IGROV1 ovarian
# NCI-H460 lung = system: NCI-H460 lung
# LOX IMVI melanoma = system: LOX IMVI melanoma
# CAKI-1 renal = system: CAKI-1 renal
# A498 renal = system: A498 renal
# U251 CNS = system: U251 CNS
# HCT-15 colon = system: HCT-15 colon
# SNB-19 CNS = system: SNB-19 CNS
# MCF7 breast = system: MCF7 breast
# COLO 205 colon = system: COLO 205 colon
# HOP-62 NSCLC = system: HOP-62 NSCLC
Structure (SMILES),TGI (OVCAR-8 ovarian) [µM],TGI (SK-MEL-28 melanoma) [µM],TGI (CCRF-CEM leukemia) [µM],TGI (DU-145 prostate) [µM],TGI (OVCAR-4 ovarian) [µM],TGI (HOP-92 NSCLC) [µM],TGI (SW-620 colon) [µM],TGI (SK-OV-3 ovarian) [µM],TGI (NCI-H23 lung) [µM],TGI (IGROV1 ovarian) [µM],TGI (NCI-H460 lung) [µM],TGI (LOX IMVI melanoma) [µM],TGI (CAKI-1 renal) [µM],TGI (A498 renal) [µM],TGI (U251 CNS) [µM],TGI (HCT-15 colon) [µM],TGI (SNB-19 CNS) [µM],TGI (MCF7 breast) [µM],TGI (COLO 205 colon) [µM],TGI (HOP-62 NSCLC) [µM]
CCCCCC(=O)Nc1nc[nH]c1C(N)=O,> 100,> 100,> 100,> 100,> 100,> 100,> 100,> 100,> 100,> 100,> 100,> 100,> 100,> 100,> 100,> 100,> 100,> 100,> 100,> 100
CCCCC(=O)Oc1ccc(CC(NC(=O)OC(C)(C)C)C(=O)NC(C)C(=O)NC(Cc2ccccc2)C(=O)NCC(N)=O)cc1 (stereo not given) (Boc-Y(Pentanoyl)AFG-NH2; configuration not given here),62.5,64.1,> 100,> 100,> 100,99.4,> 100,> 100,> 100,53.7,> 100,30.7,> 100,> 100,40.6,> 100,59,41.8,37.6,50
C=CCC(CC=O)(C(=O)OCC)C(=O)OCC,> 100,> 100,> 100,> 100,> 100,> 100,> 100,> 100,> 100,> 100,> 100,> 100,> 100,> 100,> 100,> 100,> 100,> 100,> 100,> 100
